In patent US11834453B2, “Substituted pyrimido[5,4-d]pyrimidines as HER2 inhibitors” (Array BioPharma Inc., priority 2020, dated 2023):
Blank lines part the entries; values can stand above or below the molecule they belong to.

Legend:
[1] = target: ErbB2 with Exon 20 YVMA insertion (HER2-YVMA) (Homo sapiens (Human), UniProt P04626, INS775YVMA); assay: Cellular phosphorylation assay, constitutive ErbB2 phosphorylation (Y1196) in engineered NIH 3T3 cells, Assay 4; format: cell-based
How it was run: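 Engineered NIH 3T3 cells expressing HER2-YVMA treated with compounds 1 h at 37 °C, then formaldehyde-fixed and methanol-permeabilized. pErbB2 Y1196 detected by in-cell infrared immunofluorescence, normalized to GAPDH. IC50 from the normalized curves.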

[2] = target: ErbB2 insYVMA (HER2-YVMA, SEQ ID NO: 2) (Homo sapiens, UniProt P04626, INS775YVMA/P1170A); assay: biochemical; conditions: ErbB2 insYVMA enzyme assay; read-out: Assay 1 IC50
ErbB2 insYVMA (HER2-YVMA, SEQ ID NO: 2), sequence (P04626 with tags, fused parts or gaps INS775YVMA/P1170A limits assumed): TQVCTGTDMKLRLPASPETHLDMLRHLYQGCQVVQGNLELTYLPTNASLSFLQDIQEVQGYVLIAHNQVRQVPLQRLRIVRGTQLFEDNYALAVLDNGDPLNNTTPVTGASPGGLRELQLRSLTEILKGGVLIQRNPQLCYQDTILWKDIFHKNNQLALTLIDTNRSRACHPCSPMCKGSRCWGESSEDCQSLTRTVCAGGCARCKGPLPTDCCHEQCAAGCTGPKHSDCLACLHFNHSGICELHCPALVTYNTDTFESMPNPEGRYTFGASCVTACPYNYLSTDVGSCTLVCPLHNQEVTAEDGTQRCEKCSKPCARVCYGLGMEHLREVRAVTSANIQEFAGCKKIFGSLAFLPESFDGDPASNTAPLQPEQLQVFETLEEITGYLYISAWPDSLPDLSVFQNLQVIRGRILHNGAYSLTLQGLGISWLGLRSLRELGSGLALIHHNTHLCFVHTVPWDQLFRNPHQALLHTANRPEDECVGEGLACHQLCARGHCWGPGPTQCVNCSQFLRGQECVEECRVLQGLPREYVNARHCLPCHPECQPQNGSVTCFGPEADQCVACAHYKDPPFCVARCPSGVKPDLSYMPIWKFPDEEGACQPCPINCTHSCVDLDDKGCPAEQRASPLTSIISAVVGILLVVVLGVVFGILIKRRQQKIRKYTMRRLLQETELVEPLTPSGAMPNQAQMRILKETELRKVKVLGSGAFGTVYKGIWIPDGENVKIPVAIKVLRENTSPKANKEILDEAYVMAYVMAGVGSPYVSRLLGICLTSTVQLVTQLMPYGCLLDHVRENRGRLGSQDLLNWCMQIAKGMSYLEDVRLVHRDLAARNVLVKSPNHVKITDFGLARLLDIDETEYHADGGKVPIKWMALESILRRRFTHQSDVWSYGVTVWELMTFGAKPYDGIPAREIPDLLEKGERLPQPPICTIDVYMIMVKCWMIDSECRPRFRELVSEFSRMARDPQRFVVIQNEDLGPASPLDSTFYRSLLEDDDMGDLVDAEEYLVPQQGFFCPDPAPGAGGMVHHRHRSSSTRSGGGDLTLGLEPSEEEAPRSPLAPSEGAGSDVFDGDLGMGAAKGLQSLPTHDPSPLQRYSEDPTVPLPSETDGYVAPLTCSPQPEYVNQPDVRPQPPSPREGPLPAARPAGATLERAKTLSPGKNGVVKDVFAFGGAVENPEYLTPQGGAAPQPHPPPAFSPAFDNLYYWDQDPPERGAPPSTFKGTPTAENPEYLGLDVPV

ErbB2 WT = ErbB2 WT (Homo sapiens (Human), UniProt P04626); assay: ErbB enzyme assay (CisBio HTRF KinEASE-TK), Assay 2; format: biochemical
ErbB2 WT, sequence (P04626 23-1255): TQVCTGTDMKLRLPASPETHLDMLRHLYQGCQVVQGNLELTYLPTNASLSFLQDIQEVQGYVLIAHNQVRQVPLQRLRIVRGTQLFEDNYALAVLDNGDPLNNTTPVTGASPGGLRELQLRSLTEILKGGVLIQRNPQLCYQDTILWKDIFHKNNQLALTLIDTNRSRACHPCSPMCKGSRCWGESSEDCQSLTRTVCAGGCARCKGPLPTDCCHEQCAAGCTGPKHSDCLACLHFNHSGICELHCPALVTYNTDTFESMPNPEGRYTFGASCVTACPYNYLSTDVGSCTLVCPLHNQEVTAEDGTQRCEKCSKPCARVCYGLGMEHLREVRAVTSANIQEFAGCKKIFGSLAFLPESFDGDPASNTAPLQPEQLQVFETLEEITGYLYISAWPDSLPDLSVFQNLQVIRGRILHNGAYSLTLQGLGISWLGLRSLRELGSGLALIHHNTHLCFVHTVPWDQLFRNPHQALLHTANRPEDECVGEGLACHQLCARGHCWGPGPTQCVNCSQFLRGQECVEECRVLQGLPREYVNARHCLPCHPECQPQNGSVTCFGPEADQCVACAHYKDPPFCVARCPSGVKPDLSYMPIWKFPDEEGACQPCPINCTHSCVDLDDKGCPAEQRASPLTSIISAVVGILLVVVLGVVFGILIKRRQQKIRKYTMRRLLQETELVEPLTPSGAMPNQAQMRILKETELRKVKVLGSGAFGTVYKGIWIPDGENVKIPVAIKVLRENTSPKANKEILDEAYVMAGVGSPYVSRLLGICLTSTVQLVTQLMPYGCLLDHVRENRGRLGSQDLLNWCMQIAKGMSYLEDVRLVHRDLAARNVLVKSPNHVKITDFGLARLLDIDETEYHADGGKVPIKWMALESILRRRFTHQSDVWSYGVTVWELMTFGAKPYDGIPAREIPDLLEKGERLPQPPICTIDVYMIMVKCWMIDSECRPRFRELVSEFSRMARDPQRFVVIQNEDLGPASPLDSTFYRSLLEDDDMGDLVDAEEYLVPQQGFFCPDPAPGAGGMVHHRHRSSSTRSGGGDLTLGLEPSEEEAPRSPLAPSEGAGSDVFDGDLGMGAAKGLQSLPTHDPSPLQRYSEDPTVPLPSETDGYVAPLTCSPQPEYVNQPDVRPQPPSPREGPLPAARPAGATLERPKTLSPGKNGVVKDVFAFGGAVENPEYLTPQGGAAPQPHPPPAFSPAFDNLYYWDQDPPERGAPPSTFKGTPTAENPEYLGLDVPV
How it was run: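 ErbB2 phosphorylates 250 nM biotin-TK substrate at 1 mM ATP in 25 mM HEPES pH 7.4, 10 mM MgCl2, 0.01% Triton X-100 and 2% DMSO, for 30 min at 22 °C. Product is detected by HTRF with Sa-XL665 and TK-Ab-Cryptate. Percent of control is set by DMSO-only wells and pre-quenched wells.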

EGFR = EGFR (Homo sapiens (Human), UniProt P00533); assay: ErbB enzyme assay (CisBio HTRF KinEASE-TK), Assay 3; format: biochemical
EGFR, sequence (P00533 25-1210): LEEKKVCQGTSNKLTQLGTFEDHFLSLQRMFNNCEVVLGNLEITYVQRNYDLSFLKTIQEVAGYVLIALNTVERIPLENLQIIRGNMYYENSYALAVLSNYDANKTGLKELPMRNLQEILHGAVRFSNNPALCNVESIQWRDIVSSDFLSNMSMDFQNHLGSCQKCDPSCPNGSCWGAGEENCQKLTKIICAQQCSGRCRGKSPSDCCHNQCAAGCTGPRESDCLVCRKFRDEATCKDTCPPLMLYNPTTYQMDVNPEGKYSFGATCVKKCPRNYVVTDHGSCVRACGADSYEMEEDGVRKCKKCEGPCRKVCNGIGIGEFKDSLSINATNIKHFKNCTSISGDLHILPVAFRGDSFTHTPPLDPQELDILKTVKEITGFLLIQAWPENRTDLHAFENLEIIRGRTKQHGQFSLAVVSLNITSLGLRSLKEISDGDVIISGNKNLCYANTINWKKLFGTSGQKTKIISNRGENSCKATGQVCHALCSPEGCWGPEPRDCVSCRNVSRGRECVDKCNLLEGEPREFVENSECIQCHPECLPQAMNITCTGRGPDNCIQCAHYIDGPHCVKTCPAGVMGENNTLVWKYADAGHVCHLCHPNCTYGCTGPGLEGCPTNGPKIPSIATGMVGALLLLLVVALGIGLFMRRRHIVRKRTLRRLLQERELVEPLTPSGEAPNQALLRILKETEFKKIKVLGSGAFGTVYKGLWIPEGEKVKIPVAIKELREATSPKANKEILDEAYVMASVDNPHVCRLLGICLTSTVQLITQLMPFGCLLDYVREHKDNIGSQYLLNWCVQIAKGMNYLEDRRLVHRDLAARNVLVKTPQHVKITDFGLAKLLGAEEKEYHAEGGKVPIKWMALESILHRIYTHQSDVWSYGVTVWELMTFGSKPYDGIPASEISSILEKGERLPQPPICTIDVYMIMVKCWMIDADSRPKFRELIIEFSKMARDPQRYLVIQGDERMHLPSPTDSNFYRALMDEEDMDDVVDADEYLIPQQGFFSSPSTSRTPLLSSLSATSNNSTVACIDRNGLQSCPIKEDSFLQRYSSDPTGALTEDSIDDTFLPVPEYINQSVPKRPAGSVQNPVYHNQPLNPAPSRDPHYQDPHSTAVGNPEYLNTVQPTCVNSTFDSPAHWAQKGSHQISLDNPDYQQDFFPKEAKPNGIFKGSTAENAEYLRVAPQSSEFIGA
How it was run: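 Kinase + 250 nM biotin TK-substrate, 1 mM ATP, cpd (3-fold dil.), HEPES pH 7.4/10 mM MgCl2/0.01% Triton/2% DMSO; 30 min 22 °C. Quench w/ Sa-XL665 + TK-Ab-Cryptate, 1 h, HTRF. IC50 = 50 POC on 4PL fit.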

EGFR wild type (EGFR WT) [3] = target: T1, EGFR wild type (EGFR WT) (Homo sapiens (Human), UniProt P00533); assay: Cellular phosphorylation assay, EGF-stimulated EGFR phosphorylation (Y1068) in engineered NIH 3T3 cells, Odyssey imaging, Assay 5 (footnote 1); format: cell-based; conditions: values marked with footnote 1
Protocol: NIH 3T3 cells were engineered to express ErbB2 with Exon 20 YVMA insertion (HER2-YVMA (SEQ ID NO: 2); Assay 4) or EGFR wild type (EGFR WT; Assay 5, footnote 1) with constructs obtained from GenScript and grown in DMEM supplemented with 10% fetal bovine serum and 15 μg/ml blasticidin. Cells were plated in 96-well plates at 40,000 or 45,000 cells/well for HER2-YVMA (SEQ ID NO: 2) and EGFR WT assays, respectively, and allowed to attach overnight at 37° C./5% CO2. Serially diluted compounds were added to the plates for 1 hour at 37° C./5% CO2. EGFR WT cells were stimulated with 100 ng/ml rEGF for an additional 10 minutes at 37° C./5% CO2. After compound incubation, medium was removed from the cells, which were then fixed in 3.7% formaldehyde in PBS at room temperature for 20 minutes. Following a wash with PBS, cells were permeabilized with 100% methanol at room temperature for 10 minutes. Cells were then washed with PBS/0.05% Tween-20 and blocked with Odyssey blocking buffer (LI-COR Biosciences) for at least 1 hour at room temperature. Antibodies to phosphorylated ErbB2 (Y1196, Cell Signaling #6942) or phosphorylated EGFR (Y1068, Cell Signaling #3777) and GAPDH (Millipore #MAB374) were added to the cells in blocking buffer containing 0.05% azide and incubated overnight at 4° C. After washing with PBS/0.05° i° Tween-20, the cells were incubated with fluorescently labeled secondary anti-rabbit antibody (LiCOR, IRDye 800CW #926-32211) and anti-mouse antibody (Molecular Probes, Alexa Fluor 680 #A21058) for 1 hour at room temperature in the dark. Cells were then washed and analyzed for fluorescence at both wavelengths using the Odyssey Infrared Imaging System (LI-COR Biosciences). Phosphorylated ErbB2 and EGFR signal was normalized to GAPDH signal to generate curves and calculate IC50 values.

BCRP = BCRP (Homo sapiens (Human), UniProt Q9UNQ0); assay: BCRP transfected MDCKII canine Mdr1 knockout permeability/efflux, Assay 9; conditions: dog
Protocol: BCRP transfected MDCKII cells (Assay 8) and BCRP transfected MDCKII canine Mdr1 knockout cells (Assay 9) were cultured and plated according to manufacturer's recommendations.
Both positive and negative controls were used to assess functionality of P-gp or BCRP efflux in the assays. Stock solutions for assay controls and the test article were prepared in DMSO for final test concentration of 1 μM. Final organic concentration in the assay was 1%. All dosing solutions contained 10 μM lucifer yellow to monitor MDCKII cell monolayer integrity.
For the apical to basolateral determination (A to B), 75 μL of the test article in transport buffer were added to the apical side of the individual transwells and 250 μL of basolateral media, without compound or lucifer yellow, were added to each well. For the basolateral to apical determination (B to A), 250 μL of test article in transport buffer were added to each well and 75 μL transport buffer, without compound or lucifer yellow, were added to each transwell. All tests were performed in triplicate, and each compound was tested for both apical to basolateral and basolateral to apical transport. The plates were incubated for 2 hours on a Lab-Line Instruments Titer Orbital Shaker (VWR, West Chester, PA) at 50 rpm and 37° C. with 5% CO2. All culture plates were removed from the incubator, 50 μL of media were removed from the apical and basolateral portion of each well, and added to 150 μL of 1 μM labetalol in 2:1 acetonitrile (ACN): H2O, v/v.
The plates were read using a Molecular Devices (Sunnyvale, CA) Gemini Fluorometer to evaluate the lucifer yellow concentrations at excitation/emission wavelengths of 425/535 nm. […] The plates were sealed, and the contents of each well analyzed by LC MS/MS. The compound concentrations were determined from the ratio of the peak areas of the compound to the internal standard (labetalol) in comparison to the dosing solution.
A MDS Sciex API 4000 (Applied Biosystems, Foster City, CA) mass spectrometer was used for detection of the analytes in the ion spray positive mode. Analyte responses were measured by multiple reaction monitoring (“MRM”) of transitions unique to each compound (the protonated precursor ion and selected product ions for each test article and m/z 329 to m/z 162 for labetalol, the internal standard.
The total run time, including re-equilibration, for a single injection was 1.2 minutes. […] The total run time, including re-equilibration, for a single injection was 0.61 minutes.
An efflux ratio is calculated from the mean apical to basolateral (A-B) Papp data and basolateral to apical (B-A) Papp data: Efflux ratio=Papp(B−A)/Papp(A−B)

MDR1 (P-gp) = MDR1 (P-gp) (Homo sapiens (Human), UniProt P08183); assay: MDR1 transfected MDCKII canine Mdr1 knockout permeability/efflux, Assay 7; conditions: dog, MDCK-MDR1
MDR1 (P-gp), sequence (P08183 whole entry): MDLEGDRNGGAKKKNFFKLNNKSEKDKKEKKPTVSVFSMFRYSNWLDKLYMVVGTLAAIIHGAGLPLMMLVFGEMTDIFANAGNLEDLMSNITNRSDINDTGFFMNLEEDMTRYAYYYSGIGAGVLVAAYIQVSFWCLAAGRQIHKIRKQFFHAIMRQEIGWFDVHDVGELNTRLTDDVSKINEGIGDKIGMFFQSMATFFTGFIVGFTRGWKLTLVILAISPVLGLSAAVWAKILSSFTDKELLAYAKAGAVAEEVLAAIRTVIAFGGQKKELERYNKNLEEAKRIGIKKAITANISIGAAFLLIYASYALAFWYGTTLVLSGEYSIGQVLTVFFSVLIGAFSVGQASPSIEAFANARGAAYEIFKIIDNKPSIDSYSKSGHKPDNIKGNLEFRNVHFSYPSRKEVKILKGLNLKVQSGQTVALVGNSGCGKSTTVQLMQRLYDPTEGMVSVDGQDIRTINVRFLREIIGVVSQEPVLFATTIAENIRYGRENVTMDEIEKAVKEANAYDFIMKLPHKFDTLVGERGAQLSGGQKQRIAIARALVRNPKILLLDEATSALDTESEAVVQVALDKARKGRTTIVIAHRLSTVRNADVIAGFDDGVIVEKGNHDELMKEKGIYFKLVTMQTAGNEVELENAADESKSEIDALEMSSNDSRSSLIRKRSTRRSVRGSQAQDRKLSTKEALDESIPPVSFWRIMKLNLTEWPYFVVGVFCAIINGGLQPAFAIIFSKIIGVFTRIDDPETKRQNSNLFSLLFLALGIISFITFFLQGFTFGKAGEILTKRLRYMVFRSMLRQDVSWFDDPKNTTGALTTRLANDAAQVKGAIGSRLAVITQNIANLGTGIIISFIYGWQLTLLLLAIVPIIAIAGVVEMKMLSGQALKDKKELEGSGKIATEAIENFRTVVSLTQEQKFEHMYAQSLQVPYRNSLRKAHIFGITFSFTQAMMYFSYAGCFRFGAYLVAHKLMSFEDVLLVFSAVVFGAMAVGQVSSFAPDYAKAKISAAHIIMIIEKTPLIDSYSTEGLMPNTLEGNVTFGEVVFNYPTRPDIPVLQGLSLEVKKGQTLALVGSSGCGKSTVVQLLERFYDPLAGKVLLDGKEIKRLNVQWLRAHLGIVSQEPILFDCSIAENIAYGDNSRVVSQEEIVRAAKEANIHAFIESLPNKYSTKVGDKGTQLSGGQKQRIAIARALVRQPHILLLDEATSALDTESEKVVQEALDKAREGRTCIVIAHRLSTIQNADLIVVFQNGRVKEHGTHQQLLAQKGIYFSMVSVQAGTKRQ

EGFR wild type (EGFR WT) [4] = target: T1, EGFR wild type (EGFR WT); assay: Cellular phosphorylation assay, EGF-stimulated EGFR phosphorylation in engineered NIH 3T3 cells, Phospho-EGFR DuoSet IC ELISA, Assay 5; format: cell-based
How it was run: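 NIH 3T3 cells expressing EGFR WT (20,000/well, attached overnight) were exposed to serially diluted compound for 1 h at 37 °C, then stimulated with 100 ng/ml rEGF for 10 min. Phospho-EGFR in lysates measured by sandwich ELISA optical density; IC50 from curves.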

[5] = Assay 9 Pe Ratio, efflux ratio Papp(B-A)/Papp(A-B), BCRP transfected MDCKII canine Mdr1 knockout

SMILES: CSc1ncc2ncnc(Nc3ccc(Oc4ccc5c(C)onc5c4)c(C)c3)c2n1 [Example 12, N-(3-methyl-4-((3-methylbenzo[c]isoxazol-6-yl)oxy)phenyl)-6-(methylthio)pyrimido[5,4-d]pyrimidin-4-amine]
IC50 [1]: 403 nM | IC50 [2]: 64.2 nM | IC50 (ErbB2 WT): 275 nM | IC50 (EGFR): ≥ 10000 nM | IC50 (EGFR wild type (EGFR WT) [3]): 5000 nM

SMILES: CSc1ncc2ncnc(Nc3ccc(Oc4ccc5conc5c4)c(C)c3)c2n1 [Example 10, N-(4-(benzo[c]isoxazol-6-yloxy)-3-methylphenyl)-6-(methylthio)pyrimido[5,4-d]pyrimidin-4-amine]
IC50 [1]: 671 nM | IC50 [2]: 49 nM | IC50 (ErbB2 WT): 144 nM | IC50 (EGFR): ≥ 10000 nM | IC50 (EGFR wild type (EGFR WT) [3]): 5000 nM

SMILES: COc1ncc2ncnc(Nc3ccc(Oc4ccc5c(C)onc5c4)c(C)c3)c2n1 [Example 6, 6-methoxy-N-(3-methyl-4-((3-methylbenzo[c]isoxazol-6-yl)oxy)phenyl)pyrimido[5,4-d]pyrimidin-4-amine]
IC50 [1]: 1450 nM | IC50 [2]: 24.6 nM | IC50 (ErbB2 WT): 232 nM | IC50 (EGFR): ≥ 10000 nM | IC50 (EGFR wild type (EGFR WT) [3]): 5000 nM

SMILES: Cc1cc(Nc2ncnc3cnc(S(C)(=O)=O)nc23)ccc1Oc1ccc2c(C)onc2c1 [Example 5, N-(3-methyl-4-((3-methylbenzo[c]isoxazol-6-yl)oxy)phenyl)-6-(methylsulfonyl)pyrimido[5,4-d]pyrimidin-4-amine]
IC50 [1]: 4450 nM | IC50 [2]: 9.8 nM | IC50 (ErbB2 WT): 10.9 nM | IC50 (EGFR): 4150 nM | IC50 (EGFR wild type (EGFR WT) [3]): 5000 nM

SMILES: Cc1cc(Nc2ncnc3cnc(S(C)(=O)=O)nc23)ccc1Oc1ccc2c(c1)ncn2C [Example 2, N-(3-methyl-4-((1-methyl-1H-benzo[d]imidazol-5-yl)oxy)phenyl)-6-(methylsulfonyl)pyrimido[5,4-d]pyrimidin-4-amine]
IC50 [1]: 4750 nM | IC50 [2]: 7.9 nM | IC50 (ErbB2 WT): 14.9 nM | IC50 (EGFR): 4640 nM | IC50 (EGFR wild type (EGFR WT) [3]): 5000 nM

SMILES: COC[C@H](O)CN(C)c1ncc2ncnc(Nc3ccc(Oc4ccc5c(c4)ncn5C)c(C)c3)c2n1 (racemic) [Example 100, rac-(R)-1-methoxy-3-(methyl(8-((3-methyl-4-((1-methyl-1H-benzo[d]imidazol-5-yl)oxy)phenyl)amino)pyrimido[5,4-d]pyrimidin-2-yl)amino)propan-2-ol]
efflux ratio at 2 h, 1 μM (BCRP; [5]): 18.2 | IC50 [1]: 21.1 nM | IC50 [2]: 28.8 nM | IC50 (ErbB2 WT): 31.8 nM | IC50 (EGFR): 4150 nM | efflux ratio at 2 h, 1 μM (MDR1 (P-gp)): 1.5 | IC50 (EGFR wild type (EGFR WT) [4]): ≥ 5000 nM

SMILES: Cc1cc(Nc2ncnc3cnc(N4C[C@H](O)C(F)(F)C4)nc23)c(F)cc1Oc1ccc2c(c1)ncn2C [Example 202, (S)-4,4-difluoro-1-(8-((2-fluoro-5-methyl-4-((1-methyl-1H-benzo[d]imidazol-5-yl)oxy)phenyl)amino)pyrimido[5,4-d]pyrimidin-2-yl)pyrrolidin-3-ol]
efflux ratio at 2 h, 1 μM (BCRP; [5]): 6.4 | IC50 [1]: 49.2 nM | IC50 [2]: 25.7 nM | IC50 (ErbB2 WT): 31.1 nM | IC50 (EGFR): ≥ 10000 nM | efflux ratio at 2 h, 1 μM (MDR1 (P-gp)): 1.2 | IC50 (EGFR wild type (EGFR WT) [4]): ≥ 5000 nM

SMILES: Cc1cc(Nc2ncnc3cnc(N4CC[C@@]45CCOC5)nc23)ccc1Oc1ccc2c(c1)ncn2C (single isomer, unassigned) [Example 93a]
efflux ratio at 2 h, 1 μM (BCRP): 1.9 | IC50 [1]: 20.6 nM | IC50 [2]: 17 nM | IC50 (ErbB2 WT): 16 nM | IC50 (EGFR): 1460 nM | efflux ratio at 2 h, 1 μM (MDR1 (P-gp)): 1.3 | IC50 (EGFR wild type (EGFR WT) [4]): ≥ 5000 nM

SMILES: Cc1cc(Nc2ncnc3cnc(N4CCC(C)(O)CC4)nc23)ccc1Oc1ccn2ncnc2c1 [Example 120, 1-(8-((4-([1,2,4]triazolo[1,5-a]pyridin-7-yloxy)-3-methylphenyl)amino)pyrimido[5,4-d]pyrimidin-2-yl)-4-methylpiperidin-4-ol]
efflux ratio at 2 h, 1 μM (BCRP; [5]): 7.8 | IC50 [1]: 49.4 nM | IC50 [2]: 20.6 nM | IC50 (ErbB2 WT): 19 nM | IC50 (EGFR): 5340 nM | efflux ratio at 2 h, 1 μM (MDR1 (P-gp)): 1.3 | IC50 (EGFR wild type (EGFR WT) [4]): ≥ 5000 nM

SMILES: Cc1cc(Nc2ncnc3cnc(N4CC[C@@H](C(C)(C)O)C4)nc23)ccc1Oc1ccc2c(c1)ncn2C [Example 113, (R)-2-(1-(8-((3-methyl-4-((1-methyl-1H-benzo[d]imidazol-5-yl)oxy)phenyl)amino)pyrimido[5,4-d]pyrimidin-2-yl)pyrrolidin-3-yl)propan-2-ol]
efflux ratio at 2 h, 1 μM (BCRP; [5]): 11 | IC50 [1]: 9.5 nM | IC50 [2]: 13.1 nM | IC50 (ErbB2 WT): 23 nM | IC50 (EGFR): 8480 nM | efflux ratio at 2 h, 1 μM (MDR1 (P-gp)): 0.9 | IC50 (EGFR wild type (EGFR WT) [4]): ≥ 5000 nM

SMILES: Cc1cc(Nc2ncnc3cnc(N4CCN(C5COC5)CC4)nc23)ccc1Oc1ccc2c(c1)ncn2C [Example 159, N-(3-methyl-4-((1-methyl-1H-benzo[d]imidazol-5-yl)oxy)phenyl)-6-(4-(oxetan-3-yl)piperazin-1-yl)pyrimido[5,4-d]pyrimidin-4-amine]
efflux ratio at 2 h, 1 μM (BCRP; [5]): 9.6 | IC50 [1]: 17 nM | IC50 [2]: 28.7 nM | IC50 (ErbB2 WT): 40.7 nM | IC50 (EGFR): 7370 nM | efflux ratio at 2 h, 1 μM (MDR1 (P-gp)): 2.1 | IC50 (EGFR wild type (EGFR WT) [4]): ≥ 5000 nM

SMILES: Cc1cc(Nc2ncnc3cnc(N4C[C@@H](O)C(F)(F)C4)nc23)ccc1Oc1ccc2c(c1)ncn2C [Example 185, (R)-4,4-difluoro-1-(8-((3-methyl-4-((1-methyl-1H-benzo[d]imidazol-5-yl)oxy)phenyl)amino)pyrimido[5,4-d]pyrimidin-2-yl)pyrrolidin-3-ol]
efflux ratio at 2 h, 1 μM (BCRP; [5]): 31.7 | IC50 [1]: 25.2 nM | IC50 [2]: 24.3 nM | IC50 (ErbB2 WT): 12.1 nM | IC50 (EGFR): ≥ 10000 nM | efflux ratio at 2 h, 1 μM (MDR1 (P-gp)): 2 | IC50 (EGFR wild type (EGFR WT) [4]): ≥ 5000 nM

SMILES: Cc1cc(Nc2ncnc3cnc(N(C)[C@H]4C[C@@H](O)C4)nc23)ccc1Oc1ccc2c(c1)ncn2C [Example 183]
efflux ratio at 2 h, 1 μM (BCRP; [5]): 19.5 | IC50 [1]: 5.1 nM | IC50 [2]: 4.4 nM | IC50 (ErbB2 WT): 5.8 nM | IC50 (EGFR): 1050 nM | efflux ratio at 2 h, 1 μM (MDR1 (P-gp)): 1.7 | IC50 (EGFR wild type (EGFR WT) [4]): ≥ 5000 nM

efflux ratio at 2 h, 1 μM (BCRP; [5]): 32.2 | IC50 [1]: 61.7 nM | IC50 [2]: 33.5 nM | IC50 (ErbB2 WT): 32.8 nM | IC50 (EGFR): 3170 nM | efflux ratio at 2 h, 1 μM (MDR1 (P-gp)): 1.9 | IC50 (EGFR wild type (EGFR WT) [4]): ≥ 5000 nM
SMILES: Cc1cc(Nc2ncnc3cnc(N4CC[C@@](C)(O)C4)nc23)ccc1Oc1ccn2ncnc2c1 [Example 110, (R)-1-(8-((4-([1,2,4]triazolo[1,5-a]pyridin-7-yloxy)-3-methylphenyl)amino)pyrimido[5,4-d]pyrimidin-2-yl)-3-methylpyrrolidin-3-ol]

SMILES: Cc1cc(Nc2ncnc3cnc(N(C)[C@H]4C[C@](C)(O)C4)nc23)ccc1Oc1ccc2c(c1)ncn2C [Example 171, (1r,3r)-1-methyl-3-(methyl(8-((3-methyl-4-((1-methyl-1H-benzo[d]imidazol-5-yl)oxy)phenyl)amino)pyrimido[5,4-d]pyrimidin-2-yl)amino)cyclobutan-1-ol]
efflux ratio at 2 h, 1 μM (BCRP; [5]): 8.6 | IC50 [1]: 7.1 nM | IC50 [2]: 13.5 nM | IC50 (ErbB2 WT): 5.9 nM | IC50 (EGFR): 472 nM | efflux ratio at 2 h, 1 μM (MDR1 (P-gp)): 1.9 | IC50 (EGFR wild type (EGFR WT) [4]): ≥ 5000 nM
